# Test results: patent publication US20210267978A1, “NANOPARTICLE FORMULATIONS OF IKE AND METHODS OF USE THEREOF” (The Trustees of Columbia University in the City of New York, priority 2018, published 2021)
# Key:
# A3/KAW = experiment: DLBCL cell line sensitivity to IKE (CellTiter-Glo viability, 24 h); assay type: cell-based; conditions: read-out: cell line sensitivity to IKE (IC50 class)
# Experimental: (§1) DLBCL cells were plated at 10,000 cells per well in white 384-well plates (32 μL per well) in technical duplicates and incubated overnight. The cells were then treated with 8 μL medium containing a two-fold dilution series of vehicle (DMSO), IKE (starting from 100 μM) with or without Fer-1 (starting from 200 μM). After 24 h incubation, 40 μL of 50% CellTiter-Glo (Promega) 50% cell culture medium was added to each well and incubated at room temperature with shaking for 15 min. Luminescence was measured using a Victor X5 plate reader (PerkinElmer). All cell viability data were normalized to the DMSO vehicle condition. Experiments were performed three independent times with different passages for each cell line.
# DOHH 2 = experiment: as above; assay type: cell-based; conditions: Homo sapiens; DOHH 2, 24 hours; read-out: cell line sensitivity to IKE (IC50 class)
# Experimental: as §1
# HBL 1 = experiment: as above; assay type: cell-based; conditions: HBL 1, 24 hours
# Experimental: as §1
# KARPAS 422 = experiment: as above; assay type: cell-based; conditions: KARPAS 422, 24 hours
# Experimental: as §1
# LY 7 = experiment: as above; assay type: cell-based; conditions: LY7; LY 7, 24 hours; read-out: cell line sensitivity to IKE (IC50 class)
# Experimental: as §1
# SUDHL 2 = experiment: as above; assay type: cell-based; conditions: Homo sapiens, SU-DHL-2; SUDHL 2, 24 hours; read-out: cell line sensitivity to IKE (IC50 class)
# Experimental: as §1
# SUDHL 5 = experiment: as above; assay type: cell-based; conditions: Homo sapiens, SU-DHL-5; SUDHL 5, 24 hours; read-out: cell line sensitivity to IKE (IC50 class)
# Experimental: as §1
# SUDHL 6 = experiment: as above; assay type: cell-based; conditions: Homo sapiens, SU-DHL-6; SUDHL 6, 24 hours; read-out: cell line sensitivity to IKE (IC50 class)
# Experimental: as §1
# SUDHL 7 = experiment: as above; assay type: cell-based; conditions: SUDHL 7, 24 hours; read-out: cell line sensitivity to IKE (IC50 class)
# Experimental: as §1
# SUDHL 8 = experiment: as above; assay type: cell-based; conditions: SUDHL 8, 24 hours
# Experimental: as §1
# SUDHL 9 = experiment: as above; assay type: cell-based; conditions: SUDHL 9, 24 hours
# Experimental: as §1
# U2932 = experiment: as above; assay type: cell-based; conditions: Homo sapiens; U2932, 24 hours; read-out: cell line sensitivity to IKE (IC50 class)
# Experimental: as §1
# [1] = test system: SUDHL6 xenograft tumor tissue; experiment: qPCR in mouse tumor tissue after one IKE dose; assay type: in vivo, NCG mice; conditions: single dose IKE 50 mg/kg, starting at 3 h
# Experimental: NCG mice 6-weeks of age were injected with 10 million SUDHL-6 cells subcutaneously. Visible tumors appeared after 2 weeks. Tumor size was measured by electronic caliper every 2 days and calculated using the formula: 0.5×length×width^2. After another 2 weeks, mice were randomly separated into group of 3 mice per cage with roughly tumor size (1200 mm^3). Mice were dosed at 50 mg/kg IKE, 22 mg/kg IKE, 22 mg/kg IKE PEG-PLGA nanoparticles (equal to 600 mg/kg PEG-PLGA) using IP at one time and samples were collected at 0, 1, 2, 3, 4, 6, and 24 h with three mice per time point. Mice were dosed with Vehicle 1 and Vehicle 2 (600 mg/kg PEG-PLGA) by IP and samples were collected at 24 h. […] Plasma samples were collected and analyzed as described above. […] After drying, the samples were resuspended in 100 μL of methanol and analyzed on the LC-MS with each sample analyzed twice. […] The concentration of IKE in the sample was determined by comparison against a standard curve of IKE in the range of 25 to 2,500 ng/mL. […] Pharmacokinetics parameters of IKE were assessed using Prism fitted with Lognormal of one phase exponential decay. […]
# To perform qPCR analysis in mouse tumor tissue, ˜20 mg of tumor tissue was prepared and kept on dry ice. […] RNA was reverse transcribed to cDNA then used in quantitative PCR experiment following the same steps used in cell qPCR experiment.
# [2] = Erastin and IKE solubility measurements (nephelometry); assay type: physicochemical
# Experimental: Solubility measurement samples were prepared in a 96-well Corning Costar plate with two at 1% and 5% DMSO v/v with a total sample volume of 200 μL in MilliQ water. A BMG Labtech NEPHELOstar nephelometer was used to measure turbidity of the samples with the following parameters per the instrument manufacturer: Gain=80, Laser Focus=2.50 mm, and Laser Intensity=90%. Samples were shaken in the nephelometer by orbital shaking for 3 s prior to the turbidity measurement. Sample values were blanked in the instrument software using the corresponding water and DMSO condition values. Turbidity 4000 NTU Calibration Standard-Formazin (Millipore-Sigma) was used as a positive control for all turbidity measurements. The turbidity of each sample was measured within 20 minutes of initial preparation. After the initial measurement, the sample plates were covered with aluminum sealing film and allowed to sit overnight at room temperature prior to re-measuring.
compound,measurement,setting,value
"CC(C)Oc1ccc(C(=O)Cn2ccnc2)cc1-n1c(CN2CCN(C(=O)COc3ccc(Cl)cc3)CC2)nc2ccccc2c1=O [IKE, Imidazole ketone erastin]",IC50,A3/KAW,> 10 µM
same,IC50,DOHH 2,< 0.1 µM
same,cell line sensitivity to IKE (IC50 class),HBL 1,moderately resistant
same,cell line sensitivity to IKE (IC50 class),KARPAS 422,moderately resistant
same,IC50,LY 7,> 10 µM
same,IC50,SUDHL 2,< 0.1 µM
same,IC50,SUDHL 5,< 0.1 µM
same,IC50,SUDHL 6,< 0.1 µM
same,IC50,SUDHL 7,> 10 µM
same,cell line sensitivity to IKE (IC50 class),SUDHL 8,moderately resistant
same,cell line sensitivity to IKE (IC50 class),SUDHL 9,moderately resistant
same,IC50,U2932,> 10 µM
same,CHAC1 mRNA upregulation in tumor,[1],2 fold
same,water solubility (in words),[2],"soluble under acidic aqueous conditions, but not to the same degree under neutral aqueous conditions"
